{
  "source": "ChEMBL document CHEMBL4346703",
  "about": "“Structure Overhaul Affords a Potent Purine PI3Kδ Inhibitor with Improved Tolerability” (J Med Chem, 2019)",
  "key": {"[1]": {"assay": "Intrinsic clearance in rat hepatocytes", "assay_type": "ADME, cell-based, Hepatocyte", "conditions": "read-out: CLH; call rule not given here"}, "[2]": {"biological_target": "Dual 3',5'-cyclic-AMP and -GMP phosphodiesterase 11A (Homo sapiens, UniProt Q9HCR9)", "sequence (Q9HCR9 whole entry)": "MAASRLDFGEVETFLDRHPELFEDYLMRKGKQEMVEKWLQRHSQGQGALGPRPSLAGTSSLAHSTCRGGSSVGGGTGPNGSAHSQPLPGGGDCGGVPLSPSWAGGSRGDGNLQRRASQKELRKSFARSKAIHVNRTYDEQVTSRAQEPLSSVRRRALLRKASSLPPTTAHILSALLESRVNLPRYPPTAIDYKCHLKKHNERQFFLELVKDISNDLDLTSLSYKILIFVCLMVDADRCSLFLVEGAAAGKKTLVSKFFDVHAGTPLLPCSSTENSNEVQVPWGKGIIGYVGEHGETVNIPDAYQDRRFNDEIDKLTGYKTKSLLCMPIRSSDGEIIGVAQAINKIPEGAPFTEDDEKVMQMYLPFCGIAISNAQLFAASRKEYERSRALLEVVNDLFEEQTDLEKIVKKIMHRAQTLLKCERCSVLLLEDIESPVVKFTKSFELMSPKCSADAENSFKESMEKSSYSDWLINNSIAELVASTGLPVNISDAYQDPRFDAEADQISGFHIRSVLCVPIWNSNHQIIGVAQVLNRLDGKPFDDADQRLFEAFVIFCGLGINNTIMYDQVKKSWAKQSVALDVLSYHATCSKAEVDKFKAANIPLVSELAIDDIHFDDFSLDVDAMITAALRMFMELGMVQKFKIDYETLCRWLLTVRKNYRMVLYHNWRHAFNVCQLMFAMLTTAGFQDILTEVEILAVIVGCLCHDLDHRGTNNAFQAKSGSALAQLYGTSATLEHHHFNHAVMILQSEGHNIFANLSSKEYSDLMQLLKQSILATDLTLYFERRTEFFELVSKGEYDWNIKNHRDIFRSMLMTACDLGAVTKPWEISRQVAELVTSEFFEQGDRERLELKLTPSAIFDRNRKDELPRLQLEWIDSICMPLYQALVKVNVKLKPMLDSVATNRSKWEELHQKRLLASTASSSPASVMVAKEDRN", "assay": "Inhibition of PDE11 (unknown origin)"}, "[3]": {"biological_target": "T1, Phosphatidylinositol 4,5-bisphosphate 3-kinase catalytic subunit delta isoform (Homo sapiens, UniProt O00329)", "T1 sequence (O00329 whole entry)": "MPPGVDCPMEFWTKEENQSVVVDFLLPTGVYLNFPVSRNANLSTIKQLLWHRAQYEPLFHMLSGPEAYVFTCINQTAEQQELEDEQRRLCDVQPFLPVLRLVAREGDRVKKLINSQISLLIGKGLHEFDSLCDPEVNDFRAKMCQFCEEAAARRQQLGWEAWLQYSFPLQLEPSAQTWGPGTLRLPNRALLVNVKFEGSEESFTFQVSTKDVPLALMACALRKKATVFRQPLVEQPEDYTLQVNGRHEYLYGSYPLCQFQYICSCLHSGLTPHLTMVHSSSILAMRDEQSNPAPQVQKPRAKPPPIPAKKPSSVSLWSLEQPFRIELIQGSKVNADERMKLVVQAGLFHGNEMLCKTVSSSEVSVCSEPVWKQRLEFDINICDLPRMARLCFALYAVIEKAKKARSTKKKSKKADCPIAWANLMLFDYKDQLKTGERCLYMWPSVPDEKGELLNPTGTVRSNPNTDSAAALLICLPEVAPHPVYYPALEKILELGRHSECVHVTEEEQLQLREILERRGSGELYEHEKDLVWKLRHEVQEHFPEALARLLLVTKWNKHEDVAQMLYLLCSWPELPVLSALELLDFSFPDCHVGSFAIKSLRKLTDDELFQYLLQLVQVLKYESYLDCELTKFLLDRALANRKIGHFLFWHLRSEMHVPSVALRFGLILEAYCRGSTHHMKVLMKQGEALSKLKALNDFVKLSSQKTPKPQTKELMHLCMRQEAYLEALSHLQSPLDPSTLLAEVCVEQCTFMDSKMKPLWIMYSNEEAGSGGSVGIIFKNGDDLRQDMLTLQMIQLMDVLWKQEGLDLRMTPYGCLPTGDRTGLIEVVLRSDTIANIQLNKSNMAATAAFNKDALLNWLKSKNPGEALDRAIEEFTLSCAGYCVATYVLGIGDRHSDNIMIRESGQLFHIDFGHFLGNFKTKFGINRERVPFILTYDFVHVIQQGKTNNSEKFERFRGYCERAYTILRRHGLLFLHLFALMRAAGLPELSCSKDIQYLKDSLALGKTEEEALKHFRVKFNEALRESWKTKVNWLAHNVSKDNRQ", "assay": "Inhibition of PI3Kdelta in human whole blood assessed as reduction in anti-CD79b antibody-induced CD69 expression preincubated for 60 mins followed by anti-CD79b antibody stimulation and measured after 3 hrs by FACS analysis", "assay_type": "tissue-based"}, "[4]": {"biological_target": "cAMP and cAMP-inhibited cGMP 3',5'-cyclic phosphodiesterase 10A (Homo sapiens, UniProt Q9Y233)", "sequence (Q9Y233 whole entry)": "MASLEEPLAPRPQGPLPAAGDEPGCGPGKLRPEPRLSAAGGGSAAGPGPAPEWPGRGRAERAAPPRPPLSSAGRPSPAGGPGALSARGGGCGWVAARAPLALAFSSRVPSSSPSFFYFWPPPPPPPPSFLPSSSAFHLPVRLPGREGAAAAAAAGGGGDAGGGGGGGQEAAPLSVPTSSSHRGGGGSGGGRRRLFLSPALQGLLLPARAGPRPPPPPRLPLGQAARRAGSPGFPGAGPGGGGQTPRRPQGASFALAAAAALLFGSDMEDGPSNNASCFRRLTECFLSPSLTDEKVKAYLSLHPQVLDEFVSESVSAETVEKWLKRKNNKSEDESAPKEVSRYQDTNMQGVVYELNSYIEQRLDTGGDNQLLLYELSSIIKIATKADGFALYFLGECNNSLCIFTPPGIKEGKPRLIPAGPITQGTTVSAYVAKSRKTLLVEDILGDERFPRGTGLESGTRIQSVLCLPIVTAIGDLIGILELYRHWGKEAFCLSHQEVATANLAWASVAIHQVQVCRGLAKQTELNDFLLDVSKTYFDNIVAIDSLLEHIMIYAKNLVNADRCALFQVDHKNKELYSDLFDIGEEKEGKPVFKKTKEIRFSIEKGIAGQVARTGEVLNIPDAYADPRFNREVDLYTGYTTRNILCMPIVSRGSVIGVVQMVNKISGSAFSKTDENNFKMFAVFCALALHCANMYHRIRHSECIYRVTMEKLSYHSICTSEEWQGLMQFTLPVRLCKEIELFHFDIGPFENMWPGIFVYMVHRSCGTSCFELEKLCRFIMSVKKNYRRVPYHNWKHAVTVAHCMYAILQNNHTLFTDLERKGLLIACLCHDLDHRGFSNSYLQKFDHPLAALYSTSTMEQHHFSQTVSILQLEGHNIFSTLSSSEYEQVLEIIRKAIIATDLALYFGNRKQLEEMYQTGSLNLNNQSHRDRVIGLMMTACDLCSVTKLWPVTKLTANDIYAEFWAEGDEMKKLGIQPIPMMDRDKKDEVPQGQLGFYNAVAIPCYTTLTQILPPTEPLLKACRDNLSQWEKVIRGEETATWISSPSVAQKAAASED", "assay": "Inhibition of PDE10 (unknown origin)"}, "[5]": {"assay": "fAUC in rat at 750 mg/kg administered for 4 days", "assay_type": "ADME, organism-based", "conditions": "in vivo, 96 h"}, "Phosphodiesterase 3": {"biological_target": "Phosphodiesterase 3 (Homo sapiens, UniProt Q14432+Q13370)", "assay": "Inhibition of PDE3 (unknown origin)", "assay_type": "protein assay"}, "Cytochrome P450": {"tested_on": "Cytochrome P450", "assay": "Inhibition of cytochrome P450 (unknown origin)", "assay_type": "ADME, protein assay", "conditions": "human"}, "[6]": {"assay": "Toxicity in Beagle dogs assessed as vascular injury at 25 mg/kg administered for 8 days", "assay_type": "organism-based, Canis lupus familiaris", "conditions": "dog, in vivo, 192 h"}, "[7]": {"assay": "Inhibition of adenosine transporter in human HeLa cells assessed as reduction in [3H]adenosine uptake preincubated for 30 mins followed by [3H]adenosine addition and measured after 60 mins", "assay_type": "ADME, cell-based"}, "[8]": {"assay": "Half-life in Wistar Han rat", "assay_type": "ADME", "conditions": "in vivo"}, "[9]": {"biological_target": "PI3-kinase p110-delta/p85-alpha (Homo sapiens, UniProt O00329)", "sequence (P27986 whole entry, one chain of several)": "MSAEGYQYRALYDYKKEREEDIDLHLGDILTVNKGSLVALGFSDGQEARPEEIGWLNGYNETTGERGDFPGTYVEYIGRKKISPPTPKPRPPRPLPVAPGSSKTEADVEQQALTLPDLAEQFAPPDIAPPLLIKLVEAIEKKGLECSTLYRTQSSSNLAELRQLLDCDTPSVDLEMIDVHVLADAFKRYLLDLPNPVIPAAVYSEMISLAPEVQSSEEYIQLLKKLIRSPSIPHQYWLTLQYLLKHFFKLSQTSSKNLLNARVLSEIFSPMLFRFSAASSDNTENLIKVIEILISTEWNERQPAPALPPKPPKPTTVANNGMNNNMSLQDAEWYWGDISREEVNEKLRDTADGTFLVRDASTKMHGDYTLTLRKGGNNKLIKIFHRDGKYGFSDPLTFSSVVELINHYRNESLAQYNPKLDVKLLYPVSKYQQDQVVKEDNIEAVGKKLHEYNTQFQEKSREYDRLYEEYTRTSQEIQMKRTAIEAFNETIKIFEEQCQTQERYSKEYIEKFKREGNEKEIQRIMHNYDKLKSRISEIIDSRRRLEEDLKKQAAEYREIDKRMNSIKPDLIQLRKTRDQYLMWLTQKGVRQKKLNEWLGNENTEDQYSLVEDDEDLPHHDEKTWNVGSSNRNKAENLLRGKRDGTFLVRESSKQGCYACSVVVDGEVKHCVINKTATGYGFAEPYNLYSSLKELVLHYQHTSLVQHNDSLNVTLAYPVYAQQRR", "assay": "Inhibition of N-terminal His6-tagged recombinant full length human p110delta/untagged recombinant full length human p85alpha expressed in baculovirus infected Sf21 insect cells using PIP2 as substrate preincubated for 15 mins followed by substrate addition and measured after 1 hr by HTRF assay"}, "[10]": {"assay": "Drug recovery in rat bile after 24 hrs", "assay_type": "ADME", "conditions": "read-out: Drug recovery"}, "[11]": {"biological_target": "T1, Phosphatidylinositol 4,5-bisphosphate 3-kinase catalytic subunit delta isoform", "assay": "Inhibition of PI3Kdelta in human whole blood assessed as reduction in antihuman IgE antibody-stimulated CD63 expression preincubated for 30 mins followed by antihuman IgE antibody stimulation and measured after 20 mins by FACS analysis", "assay_type": "tissue-based"}, "[12]": {"biological_target": "cGMP-specific 3',5'-cyclic phosphodiesterase (Homo sapiens, UniProt O76074)", "assay": "Inhibition of PDE5 (unknown origin)"}, "Homo sapiens": {"species_on_record": "Homo sapiens", "assay": "Selectivity ratio of IC50 for N-terminal His6-tagged recombinant full length human PI3Kgamma expressed in baculovirus infected Sf21 cells to IC50 for N-terminal His6-tagged recombinant full length human p110delta/untagged recombinant full length human p85alpha expressed in baculovirus infected Sf21 insect cells"}, "[13]": {"assay": "Toxicity in Beagle dogs assessed as body weight loss at 25 mg/kg administered for 8 days", "assay_type": "organism-based, Canis lupus familiaris", "conditions": "dog, in vivo, 192 h"}},
  "data": [
    {"smiles": "CCn1ncc(-c2nc3c(O[C@H]4CCN(C(=O)C5CCOCC5)C4)ncnc3n2C)c1C", "values": [
      {"measurement": "CLint scaled", "setting": "[1]", "value": "< 40", "unit": "mL/min/kg"},
      {"measurement": "IC50", "setting": "[2]", "value": "> 20000", "unit": "nM"},
      {"measurement": "IC50", "setting": "[3]", "value": 360, "unit": "nM"},
      {"measurement": "IC50", "setting": "[4]", "value": "> 50000", "unit": "nM"},
      {"measurement": "fAUC", "setting": "[5]", "value": 990, "unit": "µM·h"},
      {"measurement": "IC50", "setting": "Phosphodiesterase 3", "value": "> 50000", "unit": "nM"},
      {"measurement": "inhibition (INH)", "setting": "Cytochrome P450", "value": "Not Active"},
      {"measurement": "Activity", "setting": "[6]", "value": "Non-Toxic"},
      {"measurement": "IC50", "setting": "[7]", "value": "> 10000", "unit": "nM"},
      {"measurement": "half-life", "setting": "[8]", "value": 48, "unit": "min"},
      {"measurement": "IC50", "setting": "[9]", "value": 3.9, "unit": "nM"},
      {"measurement": "dose excreted at 24 h", "setting": "[10]", "value": 2, "unit": "%"},
      {"measurement": "IC50", "setting": "[11]", "value": 415, "unit": "nM"},
      {"measurement": "IC50", "setting": "[12]", "value": "> 50000", "unit": "nM"},
      {"measurement": "Ratio IC50", "setting": "Homo sapiens", "value": 970},
      {"measurement": "Activity", "setting": "[13]", "value": "Non-Toxic"}
    ]}
  ]
}
